US11358957B2, “Microbiocidal oxadiazole derivatives” (SYNGENTA PARTICIPATIONS AG, priority 2017, dated 2022)

Experiments:
[1] = test system: Puccinia recondita f. Sp. Tritici; experiment: Fungicidal activity against Puccinia recondita f. sp. tritici / wheat / leaf disc curative (brown rust); type: in vivo; conditions: foliar, 24 h, 200 ppm in the applied formulation, wheat leaf segments cv. Kanzler, curative (applied 1 day after inoculation), compared to untreated, read-out: disease control
Experimental: Leaf disks or leaf segments of various plant species are cut from plants grown in a greenhouse. The cut leaf disks or segments are placed in multiwell plates (24-well format) onto water agar. The leaf disks are sprayed with a test solution before (preventative) or after (curative) inoculation. Compounds to be tested are prepared as DMSO solutions (max. 10 mg/mL) which are diluted to the appropriate concentration with 0.025% Tween20 just before spraying. The inoculated leaf disks or segments are incubated under defined conditions (temperature, relative humidity, light, etc.) according to the respective test system. A single evaluation of disease level is carried out 3 to 14 days after inoculation, depending on the pathosystem. Percent disease control relative to the untreated check leaf disks or segments is then calculated. Wheat leaf segments cv. Kanzler are placed on agar in multiwell plates (24-well format). The leaf segments are then inoculated with a spore suspension of the fungus. Plates were stored in darkness at 19C and 75% relative humidity. The formulated test compound diluted in water was applied 1 day after inoculation. The leaf segments were incubated at 19° C. and 75% relative humidity under a light regime of 12 hours light/12 hours darkness in a climate cabinet and the activity of a compound was assessed as percent disease control compared to untreated when an appropriate level of disease damage appears in untreated check leaf segments (6 to 8 days after application). The following compounds at 200 ppm in the applied formulation give at least 80% disease control in this test when compared to untreated control leaf disks under the same conditions, which show extensive disease development.

Phakopsora pachyrhizi = experiment: Fungicidal activity against Phakopsora pachyrhizi / soybean / leaf disc preventative (Asian soybean rust); type: in vivo; conditions: foliar, 200 ppm in the applied formulation, soybean leaf disks, compared to untreated, read-out: disease control
Experimental: Leaf disks or leaf segments of various plant species are cut from plants grown in a greenhouse. The cut leaf disks or segments are placed in multiwell plates (24-well format) onto water agar. The leaf disks are sprayed with a test solution before (preventative) or after (curative) inoculation. Compounds to be tested are prepared as DMSO solutions (max. 10 mg/mL) which are diluted to the appropriate concentration with 0.025% Tween20 just before spraying. The inoculated leaf disks or segments are incubated under defined conditions (temperature, relative humidity, light, etc.) according to the respective test system. A single evaluation of disease level is carried out 3 to 14 days after inoculation, depending on the pathosystem. Percent disease control relative to the untreated check leaf disks or segments is then calculated. Soybean leaf disks are placed on water agar in multiwell plates (24-well format) and sprayed with the formulated test compound diluted in water. One day after application leaf discs are inoculated by spraying a spore suspension on the lower leaf surface. After an incubation period in a climate cabinet of 24-36 hours in darkness at 20° C. and 75% rh leaf disc are kept at 20° C. with 12 h light/day and 75% rh. The activity of a compound is assessed as percent disease control compared to untreated when an appropriate level of disease damage appears in untreated check leaf disks (12 to 14 days after application). The following compounds at 200 ppm in the applied formulation give at least 80% disease control in this test when compared to untreated control leaf disks under the same conditions, which show extensive disease development.

[2] = test system: Glomerella lagenarium (Colletotrichum lagenarium); experiment: Fungicidal activity against Glomerella lagenarium (Colletotrichum lagenarium) liquid culture / cucumber / preventative (anthracnose); type: cell-based; conditions: Colletotrichum orbiculare; 20 ppm in the applied formulation; liquid culture (PDB), inhibition of growth measured photometrically 3 to 4 days after application; compared to untreated; read-out: disease control
Procedure, shortened: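 Conidia from cryogenic storage mixed into potato dextrose broth and added to compound in DMSO in microtiter plates. Incubated at 24° C.; growth inhibition read photometrically 3 to 4 days after application. Disease control expressed relative to untreated control, with compound at 20 ppm in the applied formulation.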

[3] = test system: Puccinia recondita f. Sp. Tritici; experiment: Fungicidal activity against Puccinia recondita f. sp. tritici / wheat / leaf disc preventative (brown rust); type: in vivo; conditions: foliar, 200 ppm in the applied formulation, wheat leaf segments cv. Kanzler, preventative (inoculated 1 day after application), compared to untreated, read-out: disease control
Procedure, shortened: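 Segments of wheat cv. Kanzler on water agar were sprayed with compound and inoculated with spores 1 day later. They were kept at 19 °C, 75% rh and 12 h light/12 h dark. Percent disease control versus untreated was scored 7–9 days after application; compounds were tested at 200 ppm.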

CC(c1ccc(-c2noc(C(F)(F)F)n2)s1)N1CCCCC1=O (stereo not drawn) [Compound 1.34, 1-[1-[5-[5-(trifluoromethyl)-1,2,4-oxadiazol-3-yl]-2-thienyl]ethyl]piperidin-2-one]
≥ 80%: pest or weed control at 200 ppm [1] | pest or weed control at 200 ppm (Phakopsora pachyrhizi) | inhibition of growth at 20 ppm [2] | pest or weed control at 200 ppm [3]

FC(F)(F)c1nc(-c2ccc(Cn3ccnc3)s2)no1 [Compound 1.17, 3-[5-(imidazol-1-ylmethyl)-2-thienyl]-5-(trifluoromethyl)-1,2,4-oxadiazole]
≥ 80%: pest or weed control at 200 ppm [1] | pest or weed control at 200 ppm (Phakopsora pachyrhizi) | inhibition of growth at 20 ppm [2] | pest or weed control at 200 ppm [3]

COC(=O)c1ccnn1Cc1ccc(-c2noc(C(F)(F)F)n2)s1 [Compound 1.54, methyl 2-[[5-[5-(trifluoromethyl)-1,2,4-oxadiazol-3-yl]-2-thienyl]methyl]pyrazole-3-carboxylate]
≥ 80%: pest or weed control at 200 ppm [1] | pest or weed control at 200 ppm (Phakopsora pachyrhizi) | inhibition of growth at 20 ppm [2] | pest or weed control at 200 ppm [3]

CCOC(=O)c1ccnn1Cc1ccc(-c2noc(C(F)(F)F)n2)s1 [Compound 1.45, ethyl 2-[[5-[5-(trifluoromethyl)-1,2,4-oxadiazol-3-yl]-2-thienyl]methyl]pyrazole-3-carboxylate]
≥ 80%: pest or weed control at 200 ppm [1] | pest or weed control at 200 ppm (Phakopsora pachyrhizi) | inhibition of growth at 20 ppm [2] | pest or weed control at 200 ppm [3]

Cc1cc(C)n(Cc2ccc(-c3noc(C(F)(F)F)n3)s2)n1 [Compound 1.21, 3-[5-[(3,5-dimethylpyrazol-1-yl)methyl]-2-thienyl]-5-(trifluoromethyl)-1,2,4-oxadiazole]
≥ 80%: pest or weed control at 200 ppm [1] | pest or weed control at 200 ppm (Phakopsora pachyrhizi) | inhibition of growth at 20 ppm [2] | pest or weed control at 200 ppm [3]

FC(F)(F)c1nc(-c2ccc(Cn3cnc4ccccc43)s2)no1 [Compound 1.25, 3-[5-(benzimidazol-1-ylmethyl)-2-thienyl]-5-(trifluoromethyl)-1,2,4-oxadiazole]
≥ 80%: pest or weed control at 200 ppm [1] | pest or weed control at 200 ppm (Phakopsora pachyrhizi) | inhibition of growth at 20 ppm [2] | pest or weed control at 200 ppm [3]

CN(C)C(=O)c1ccnn1Cc1ccc(-c2noc(C(F)(F)F)n2)s1 [Compound 1.58, N,N-dimethyl-2-[[5-[5-(trifluoromethyl)-1,2,4-oxadiazol-3-yl]-2-thienyl]methyl]pyrazole-3-carboxamide]
≥ 80%: pest or weed control at 200 ppm [1] | pest or weed control at 200 ppm (Phakopsora pachyrhizi) | pest or weed control at 200 ppm [3]

CCCOC(=O)c1ncnn1Cc1ccc(-c2noc(C(F)(F)F)n2)s1 [Compound 1.44, propyl 2-[[5-[5-(trifluoromethyl)-1,2,4-oxadiazol-3-yl]-2-thienyl]methyl]-1,2,4-triazole-3-carboxylate]
≥ 80%: pest or weed control at 200 ppm [1] | pest or weed control at 200 ppm (Phakopsora pachyrhizi) | inhibition of growth at 20 ppm [2] | pest or weed control at 200 ppm [3]

COC(=O)c1ncn(Cc2ccc(-c3noc(C(F)(F)F)n3)s2)n1 [Compound 1.6, methyl 1-[[5-[5-(trifluoromethyl)-1,2,4-oxadiazol-3-yl]-2-thienyl]methyl]-1,2,4-triazole-3-carboxylate]
≥ 80%: pest or weed control at 200 ppm [1] | pest or weed control at 200 ppm (Phakopsora pachyrhizi) | inhibition of growth at 20 ppm [2] | pest or weed control at 200 ppm [3]

CCOC(=O)c1cnn(C(C)c2ccc(-c3noc(C(F)(F)F)n3)s2)c1 (stereo not drawn) [Compound 1.30, ethyl 1-[1-[5-[5-(trifluoromethyl)-1,2,4-oxadiazol-3-yl]-2-thienyl]ethyl]pyrazole-4-carboxylate]
≥ 80%: pest or weed control at 200 ppm [1] | pest or weed control at 200 ppm (Phakopsora pachyrhizi) | inhibition of growth at 20 ppm [2] | pest or weed control at 200 ppm [3]

CCN(CC)C(=O)c1ccnn1Cc1ccc(-c2noc(C(F)(F)F)n2)s1 [Compound 1.161, N,N-diethyl-2-[[5-[5-(trifluoromethyl)-1,2,4-oxadiazol-3-yl]-2-thienyl]methyl]pyrazole-3-carboxamide]
≥ 80%: pest or weed control at 200 ppm [1] | inhibition of growth at 20 ppm [2] | pest or weed control at 200 ppm [3]

FC(F)(F)c1nc(-c2ccc(Cn3ccc4cccnc43)s2)no1 [Compound 1.8, 3-[5-(pyrrolo[2,3-b]pyridin-1-ylmethyl)-2-thienyl]-5-(trifluoromethyl)-1,2,4-oxadiazole]
≥ 80%: pest or weed control at 200 ppm [1] | inhibition of growth at 20 ppm [2] | pest or weed control at 200 ppm [3]

Cc1cc(N)n(Cc2ccc(-c3noc(C(F)(F)F)n3)s2)n1 [Compound 1.16, 5-methyl-2-[[5-[5-(trifluoromethyl)-1,2,4-oxadiazol-3-yl]-2-thienyl]methyl]pyrazol-3-amine]
≥ 80%: pest or weed control at 200 ppm [1] | inhibition of growth at 20 ppm [2] | pest or weed control at 200 ppm [3]

O=Cc1cnn(Cc2ccc(-c3noc(C(F)(F)F)n3)s2)c1 [Compound 1.22, 1-[[5-[5-(trifluoromethyl)-1,2,4-oxadiazol-3-yl]-2-thienyl]methyl]pyrazole-4-carbaldehyde]
≥ 80%: pest or weed control at 200 ppm [1] | inhibition of growth at 20 ppm [2] | pest or weed control at 200 ppm [3]

CNC(=O)c1cnn(C(C)c2ccc(-c3noc(C(F)(F)F)n3)s2)c1 (stereo not drawn) [Compound 1.70, N-methyl-1-[1-[5-[5-(trifluoromethyl)-1,2,4-oxadiazol-3-yl]-2-thienyl]ethyl]pyrazole-4-carboxamide]
≥ 80%: pest or weed control at 200 ppm [1] | inhibition of growth at 20 ppm [2] | pest or weed control at 200 ppm [3]

CCN(CC)C(=O)c1ccn(Cc2ccc(-c3noc(C(F)(F)F)n3)s2)n1 [Compound 1.128, N,N-diethyl-1-[[5-[5-(trifluoromethyl)-1,2,4-oxadiazol-3-yl]-2-thienyl]methyl]pyrazole-3-carboxamide]
≥ 80%: pest or weed control at 200 ppm [1] | inhibition of growth at 20 ppm [2] | pest or weed control at 200 ppm [3]

C=CCNC(=O)c1cnn(C(C)c2ccc(-c3noc(C(F)(F)F)n3)s2)c1 (stereo not drawn) [Compound 1.73, N-allyl-1-[1-[5-[5-(trifluoromethyl)-1,2,4-oxadiazol-3-yl]-2-thienyl]ethyl]pyrazole-4-carboxamide]
≥ 80%: pest or weed control at 200 ppm [1] | inhibition of growth at 20 ppm [2] | pest or weed control at 200 ppm [3]

O=C(NC1CCCC1)c1ncn(Cc2ccc(-c3noc(C(F)(F)F)n3)s2)n1 [Compound 1.94, N-cyclopentyl-1-[[5-[5-(trifluoromethyl)-1,2,4-oxadiazol-3-yl]-2-thienyl]methyl]-1,2,4-triazole-3-carboxamide]
≥ 80%: pest or weed control at 200 ppm [1] | inhibition of growth at 20 ppm [2] | pest or weed control at 200 ppm [3]
